ChEMBL document CHEMBL1145692, “New Type of Mono-tetrahydrofuran Ring Acetogenins from Goniothalamus donnaiensis” (J Nat Prod, 1997)

Tests used:
KB [1] = assay: Cytotoxicity against human KB cells at 10 ug/ml; format: functional
KB [2] = assay: Cytotoxicity against human KB cells; format: functional, cell-based
HCT-8 = assay: Cytotoxicity against human HCT8 cells; format: functional, cell-based

SMILES | inhibition at 10 µg/mL (KB [1]) [%] | IC50 (KB [2]) [µg/mL] | IC50 (HCT-8) [µg/mL]
CCCCCCCCCCCCCC[C@H](O)[C@@H](O)CC[C@H](O)[C@@H]1CC[C@@H](CCCCC[C@@H](O)CC2=CC(C)(O)OC2=O)O1 (mixture of isomers) [DONNAIENIN B/34-EPI-DONNAIENIN B] | 53.8 | – | –
CCCCCCCCCCCC[C@@H](O)[C@H]1CC[C@H]([C@H](O)CCCCCCCCCC[C@@H](O)CC2=CC(C)(O)OC2=O)O1 (mixture of isomers) | – | < 1 | < 10
